# Values of other authors as cited in patent publication US9809617B2, “Crystal form of regadenoson and preparation method thereof” (Shanghai Ziyuan Pharmaceutical Co., Ltd., priority 2015, dated 2017).
# Details: heat / humidity, as described for U.S. Pat. No. 7,732,595
row,Structure (SMILES),stability of crystal form (in words)
1,CCNC(=O)c1cnn(-c2nc(N)c3ncn(C4O[C@H](CO)[C@@H](O)[C@H]4O)c3n2)c1 (stereo partly drawn) [Crystal form A],stable under heating under relative humidity stress conditions up to its melting point
2,CCNC(=O)c1cnn(-c2nc(N)c3ncn(C4O[C@H](CO)[C@@H](O)[C@H]4O)c3n2)c1 (stereo partly drawn) [crystal form C],unstable after losing crystal water under a high temperature
3,CCNC(=O)c1cnn(-c2nc(N)c3ncn(C4O[C@H](CO)[C@@H](O)[C@H]4O)c3n2)c1 (stereo partly drawn) [amorphous form of regadenoson],unstable in atmospheric moisture
